Reference: publication PMC7554048, “FBI-1 enhanced the resistance of triple-negative breast cancer cells to chemotherapeutic agents via the miR-30c/PXR axis” (Cell Death & Disease, 2020)
Read-outs that look alike come from different tables or passages of the source.

What was measured:
MDA-MB-436 = test: Cell-survival SRB assay; type: cell-based; settings: Homo sapiens, MDA-MB-436, 48 h, read-out: The IC50 values of olaparib
Description: (§1) The TNBC cells were treated with the indicated concentration of agents (10, 3, 1, 0.3, 0.1, 0.03, or 0.01 μmol/L for olaparib) for 48 h. Then, cells were analyzed by the Sulforhodamine B (SRB) assay, following the methods provided by and Li et al.[23] and Guan et al.[24]. The relative survival cells were determined by the O.D. values (optical density values) at 510 nm. […] The IC50 values of agents were calculated from the inhibition rates[23],[24]. The colony formation experiments were performed following the method desicripted by Fang et al.[5]. TNBC cells were transfected with the plasmids and treated with solvent control or the olaparib. The cells were analyzed by the colony-formation.

PDC No. 6 = test: Cell-survival SRB assay; type: cell-based; settings: Homo sapiens, 48 h, read-out: IC50 values of olparib
Description: as §1

HCC-1937 = test: Cell-survival SRB assay; type: cell-based; settings: Homo sapiens, HCC1937, 48 h, read-out: The IC50 values of olaparib
Description: as §1

PDC No. 3 = test: Cell-survival SRB assay; type: cell-based; settings: Homo sapiens, 48 h, read-out: IC50 values of olparib
Description: as §1

PDC No. 2 = test: Cell-survival SRB assay; type: cell-based; settings: Homo sapiens, 48 h, read-out: IC50 values of olparib
Description: as §1

PDC No. 7 = test: Cell-survival SRB assay; type: cell-based; settings: Homo sapiens, 48 h, read-out: IC50 values of olparib
Description: as §1

PDC No. 9 = test: Cell-survival SRB assay; type: cell-based; settings: Homo sapiens, 48 h, read-out: IC50 values of olparib
Description: as §1

[1] = Olaparib sustained in subcutaneous TNBC tumors after intratumoral injection, LC-MS/MS (half-life); type: in vivo, nude mice; settings: nude, mouse, subcutaneous tumor tissue, other: injected into the subcutaneous tumors (intratumoral), read-out: Half life values of olaparib (t1/2) In subcutaneous tumors (converted)
Description: (§2) TNBC cells transfected with plasmids were used for the pharmacokinetic experiments to examine the amount of olaparib sustained in the cells. For the cell-based experiments, cells were treated with 1 μmol/L concentration of olaparib for 12 h[33]. Then, cells were harvested at indicated time-points. For the animal experiments, TNBC cells were injected into the subcutaneous position to form subcutaneous tumor tissues. After 2–3 weeks’ growth, when the tumor volumes reached 1500–2000 mm^3, the solution of olaparib was injected into the subcutaneous tumors. Then, the tumor tissues were harvested at indicated times[34],[35]. The olaparib in cells or tumor tissues was extracted by acetonitrile (ACN), and the amount of olaparib sustained in cells or tumor tissues at each time point was determined by liquid chromatography–mass spectrometry/mass spectrometry (LC-MS/MS), following the methods established by Krens et al.[36]. The sustaining rates of olaparib were calculated as (the amount of olaparib at each time)/(the amount of olaparib at 0-time) × 100%. The sustaining curves or the half-time life (t1/2) of olaparib was obtained by the sustained rates of olaparib.

[2] = Olaparib sustained in cultured TNBC cells, LC-MS/MS (half-life); type: in vitro ADME, human; settings: human
Description: as §2

TNBC PDC No. 3 = test: In vivo antitumor effect of olaparib on subcutaneous TNBC tumors; settings: nude mice, oral administration once every two days, 4–5 weeks
Description: Female nude mice, 4–6 weeks old, were purchased from Beijing Si-Bei-Fu Corporation, China. The animal experiments were approved by the Institutional Animal Care and Use Committee of the Chinese PLA General Hospital, China. All animal experiments (n = 10 for each group; animals were randomly divided into the groups) were performed according to the UK Animals (Scientific Procedures) Act, 1986, and associated guidelines. TNBC cells transfected with plasmids were treated with olaparib via oral administration once every two days. After 4–5 weeks’ treatment, the tumor tissues of the mice were harvested. The tumor volumes or tumor weights were determined following the methods described by Jia et al.[37]. The inhibition rates of olaparib were calculated by the tumor volumes or tumor weights.

## O=C(c1cc(Cc2n[nH]c(=O)c3ccccc23)ccc1F)N1CCN(C(=O)C2CC2)CC1 [olaparib]
MDA-MB-436; MDA-MB-436, FBI-1 + miR-30c, 48 h
  IC50: 210 ± 20 nM
MDA-MB-436; MDA-MB-436, FBI-1, 48 h
  IC50: 2460 ± 790 nM
MDA-MB-436; MDA-MB-436, control, 48 h
  IC50: 790 ± 280 nM
MDA-MB-436; MDA-MB-436, miR-30c + PXR^Mut, 48 h
  IC50: 2750 ± 400 nM
MDA-MB-436; MDA-MB-436, miR-30c, 48 h
  IC50: 100 ± 30 nM
MDA-MB-436; MDA-MB-436, siFBI-1 + miR-30c inhibitor, 48 h
  IC50: 1820 ± 310 nM
MDA-MB-436; MDA-MB-436, siFBI-1, 48 h
  IC50: 140 ± 10 nM
PDC No. 6; PDC No. 6, control
  IC50: 1740 ± 820 nM
PDC No. 6; PDC No. 6, siFBI-1, 48 h
  IC50: 250 ± 40 nM
HCC-1937; HCC-1937, FBI-1 + miR-30c, 48 h
  IC50: 240 ± 40 nM
HCC-1937; HCC-1937, FBI-1, 48 h
  IC50: 3700 ± 380 nM
HCC-1937; HCC-1937, control, 48 h
  IC50: 900 ± 330 nM
HCC-1937; HCC-1937, miR-30c + PXR^Mut, 48 h
  IC50: 4900 ± 820 nM
HCC-1937; HCC-1937, miR-30c, 48 h
  IC50: 100 ± 50 nM
HCC-1937; HCC-1937, siFBI-1 + miR-30c inhibitor, 48 h
  IC50: 2210 ± 510 nM
HCC-1937; HCC-1937, siFBI-1, 48 h
  IC50: 130 ± 80 nM
PDC No. 3; PDC No. 3, FBI-1, 48 h
  IC50: 8750 ± 1000 nM
PDC No. 3; PDC No. 3, control
  IC50: 940 ± 100 nM
PDC No. 3; PDC No. 3, ketoconazole + FBI-1, 48 h
  IC50: 630 ± 110 nM
PDC No. 3; PDC No. 3, siFBI-1, 48 h
  IC50: 100 ± 50 nM
PDC No. 2; PDC No. 2, control
  IC50: 1320 ± 250 nM
PDC No. 2; PDC No. 2, siFBI-1, 48 h
  IC50: 220 ± 20 nM
PDC No. 7; PDC No. 7, control
  IC50: 2040 ± 770 nM
PDC No. 7; PDC No. 7, siFBI-1, 48 h
  IC50: 330 ± 100 nM
PDC No. 9; PDC No. 9, FBI-1, 48 h
  IC50: 9880 ± 650 nM
PDC No. 9; PDC No. 9, control
  IC50: 850 ± 330 nM
PDC No. 9; PDC No. 9, ketoconazole + FBI-1, 48 h
  IC50: 1640 ± 520 nM
[1]; PDC No. 2, Control
  half-life: 30.1 ± 6.81 h
[1]; PDC No. 2, siFBI-1
  half-life: 53.7 ± 7.34 h
[1]; PDC No. 3, Control
  half-life: 32.2 ± 9.21 h
[1]; PDC No. 3, FBI-1
  half-life: 17.9 ± 8.65 h
[1]; PDC No. 3, siFBI-1
  half-life: 62.7 ± 6.77 h
[1]; PDC No. 6, Control
  half-life: 28.6 ± 9.84 h
[1]; PDC No. 6, siFBI-1
  half-life: 43.6 ± 7.72 h
[1]; PDC No. 7, Control
  half-life: 31.4 ± 9.95 h
[1]; PDC No. 7, siFBI-1
  half-life: 58.2 ± 9.06 h
[1]; PDC No. 9, Control
  half-life: 36.1 ± 8.33 h
[1]; PDC No. 9, FBI-1
  half-life: 22.6 ± 4.36 h
[2]; HCC-1937, FBI-1 + miR-30c, read-out: half life values of olaparib (t1/2) (converted)
  half-life at 1 μmol/L: 57.3 ± 8.91 h
[2]; HCC-1937 TNBC cells, HCC-1937, FBI-1, read-out: half life values of olaparib (t1/2) (converted)
  half-life at 1 μmol/L: 9.44 ± 0.57 h
[2]; HCC-1937 TNBC cells, HCC-1937, control, read-out: half life values of olaparib (t1/2) (converted)
  half-life at 1 μmol/L: 31.2 ± 4.67 h
[2]; HCC-1937 TNBC cells, HCC-1937, miR-30c + PXR^Mut, read-out: half life values of olaparib (t1/2) (converted)
  half-life at 1 μmol/L: 8.55 ± 0.3 h
[2]; HCC-1937 TNBC cells, HCC-1937, miR-30c, read-out: half life values of olaparib (t1/2) (converted)
  half-life at 1 μmol/L: 68.3 ± 13.4 h
[2]; HCC-1937 TNBC cells, HCC-1937, siFBI-1 + miR-30c inhibitor, read-out: half life values of olaparib (t1/2) (converted)
  half-life at 1 μmol/L: 18.6 ± 4.08 h
[2]; HCC-1937 TNBC cells, HCC-1937, siFBI-1, read-out: half life values of olaparib (t1/2) (converted)
  half-life at 1 μmol/L: 50.2 ± 5.62 h
[2]; MDA-MB-436, FBI-1 + miR-30c, read-out: half life values of olaparib (t1/2) (converted)
  half-life at 1 μmol/L: 44.1 ± 5.75 h
[2]; MDA-MB-436 TNBC cells, MDA-MB-436, FBI-1, read-out: half life values of olaparib (t1/2) (converted)
  half-life at 1 μmol/L: 13.4 ± 2.75 h
[2]; MDA-MB-436 TNBC cells, MDA-MB-436, control, read-out: half life values of olaparib (t1/2) (converted)
  half-life at 1 μmol/L: 28.9 ± 4.32 h
[2]; MDA-MB-436 TNBC cells, MDA-MB-436, miR-30c + PXR^Mut, read-out: half life values of olaparib (t1/2) (converted)
  half-life at 1 μmol/L: 11.2 ± 4.33 h
[2]; MDA-MB-436 TNBC cells, MDA-MB-436, miR-30c, read-out: half life values of olaparib (t1/2) (converted)
  half-life at 1 μmol/L: 51.3 ± 7.14 h
[2]; MDA-MB-436 TNBC cells, MDA-MB-436, siFBI-1 + miR-30c inhibitor, read-out: half life values of olaparib (t1/2) (converted)
  half-life at 1 μmol/L: 20.3 ± 5.48 h
[2]; MDA-MB-436 TNBC cells, MDA-MB-436, siFBI-1, read-out: half life values of olaparib (t1/2) (converted)
  half-life at 1 μmol/L: 47.3 ± 7.42 h
[2]; TNBC cells PDC No. 2, PDC No. 2, Control, read-out: Half life values of olaparib (t1/2) In cultured cells (converted)
  half-life at 1 μmol/L: 21.7 ± 6.89 h
[2]; TNBC cells PDC No. 2, PDC No. 2, siFBI-1, read-out: Half life values of olaparib (t1/2) In cultured cells (converted)
  half-life at 1 μmol/L: 60.8 ± 4.85 h
[2]; TNBC cells PDC No. 3, PDC No. 3, Control (Table 3), read-out: Half life values of olaparib (t1/2) In cultured cells (converted)
  half-life at 1 μmol/L: 25 ± 7.82 h
[2]; TNBC cells PDC No. 3, PDC No. 3, Control (Table 4), read-out: Half-life values of olparib (t1/2) (converted)
  half-life at 1 μmol/L: 27.4 ± 4.3 h
[2]; TNBC cells PDC No. 3, PDC No. 3, FBI-1 (Table 3), read-out: Half life values of olaparib (t1/2) In cultured cells (converted)
  half-life at 1 μmol/L: 11.7 ± 3.88 h
[2]; TNBC cells PDC No. 3, PDC No. 3, FBI-1 (Table 4), read-out: Half-life values of olparib (t1/2) (converted)
  half-life at 1 μmol/L: 10.6 ± 4.54 h
[2]; TNBC cells PDC No. 3, PDC No. 3, siFBI-1, read-out: Half life values of olaparib (t1/2) In cultured cells (converted)
  half-life at 1 μmol/L: 59.2 ± 8.91 h
[2]; TNBC cells PDC No. 3, with ketoconazole (concentration not stated), PDC No. 3, FBI-1 + ketoconazole, read-out: Half-life values of olparib (t1/2) (converted)
  half-life at 1 μmol/L: 26.2 ± 3.85 h
[2]; TNBC cells PDC No. 6, PDC No. 6, Control, read-out: Half life values of olaparib (t1/2) In cultured cells (converted)
  half-life at 1 μmol/L: 19.4 ± 5.83 h
[2]; TNBC cells PDC No. 6, PDC No. 6, siFBI-1, read-out: Half life values of olaparib (t1/2) In cultured cells (converted)
  half-life at 1 μmol/L: 51.4 ± 11.5 h
[2]; TNBC cells PDC No. 7, PDC No. 7, Control, read-out: Half life values of olaparib (t1/2) In cultured cells (converted)
  half-life at 1 μmol/L: 21 ± 5.01 h
[2]; TNBC cells PDC No. 7, PDC No. 7, siFBI-1, read-out: Half life values of olaparib (t1/2) In cultured cells (converted)
  half-life at 1 μmol/L: 55.5 ± 9.97 h
[2]; TNBC cells PDC No. 9, PDC No. 9, Control (Table 3), read-out: Half life values of olaparib (t1/2) In cultured cells (converted)
  half-life at 1 μmol/L: 33.8 ± 5.5 h
[2]; TNBC cells PDC No. 9, PDC No. 9, Control (Table 4), read-out: Half-life values of olparib (t1/2) (converted)
  half-life at 1 μmol/L: 36.3 ± 6.64 h
[2]; TNBC cells PDC No. 9, PDC No. 9, FBI-1 (Table 3), read-out: Half life values of olaparib (t1/2) In cultured cells (converted)
  half-life at 1 μmol/L: 18.1 ± 4.44 h
[2]; TNBC cells PDC No. 9, PDC No. 9, FBI-1 (Table 4), read-out: Half-life values of olparib (t1/2) (converted)
  half-life at 1 μmol/L: 14.9 ± 2.88 h
[2]; TNBC cells PDC No. 9, with ketoconazole (concentration not stated), PDC No. 9, FBI-1 + ketoconazole, read-out: Half-life values of olparib (t1/2) (converted)
  half-life at 1 μmol/L: 37.8 ± 5.55 h
TNBC PDC No. 3
  subcutaneous growth of TNBC cells: inhibited the subcutaneous growth of TNBC cells
